Laboratory results published in patent US20150190416A1, “FILAGGRIN PRODUCTION PROMOTER, THERAPEUTIC AGENT FOR DISEASES ASSOCIATED WITH REDUCTION IN PRODUCTION OF FILAGGRIN, AND METHOD FOR SCREENING FOR SAID THERAPEUTIC AGENT” (KYOTO UNIVERSITY, priority 2012, published 2015).

Experiments:
FLG mRNA = FLG mRNA in three-dimensional cultured skin, real-time PCR (Example 10); assay type: cell-based; settings: human skin three-dimensional model, 1 μM, recovered 7 days after start of culture
Description: In this example, the expression-increasing effect of Compound 1 on FLG mRNA was examined by using three-dimensional cultured skin. FLG mRNA expression was measured by a real-time PCR method.
1) A commercially available human skin three-dimensional model (TEST SKIN™ LSE-013, TOYOBO CO., LTD.) was cultured by using TEST SKIN LSE ASSAY MEDIUM (TOYOBO CO., LTD.) according to the manufacturer's protocol.
2) After culture for 2 days, the following medicament A) or C) was dissolved in DMSO, and was added to the medium at 1 μM to treat the cells with the medicament. • A) Compound 1 (N-quinolylbenzamide derivative) • C) Comparative Compound 2 (scriptaid)
As a control example, a solvent only (vehicle) was added.
3) After further culture for 2 days (4 days after the start of culture), the medium was exchanged for the medium to which the medicament was added. 3 days after further culture (7 days after the start of culture), the three-dimensional cultured skin was recovered, frozen with liquid nitrogen, and then stored at −30° C.
4) Total RNA was extracted from each of the cells treated with the medicaments by using an RNA extraction reagent (RNeasy™, QIAGEN N.V.) according to the manufacturer's protocol. cDNA was prepared from the total RNA by using a reverse transcriptase reagent (Prime Script™, Takara) according to the manufacturer's protocol. […]

FLG promoter = assay: Transcription-activating effect on FLG promoter, luciferase assay in NHEK cells (Example 1); assay type: cell-based, human; settings: 1 μM (Comparative Compound 2: 1 μM or 0.1 μM), 3 days
Description: In this example, the transcription activity on FLG promoter of an N-quinolylbenzamide derivative (Compound 1) was confirmed by using neonatal normal human epidermal keratinocytes (NHEK cells). The transcription activity of the FLG promoter was measured by luciferase assay.
1) 1.2×10^5 cells/ml of NHEK cells (KURABO INDUSTRIES LTD.) were plated on a 96-well plate at 80 μl/well (9.6×10^3 cells/well), and 100 μl of a culture medium containing a medium for proliferating normal human epidermal keratinocytes (HuMedia-KG2, KURABO INDUSTRIES LTD.) supplemented with human epidermal growth factor (hEGF) (0.1 ng/ml), insulin (10 μg/ml), hydrocortisone (0.5 μg/ml), gentamycin (50 μg/ml), amphotericin B (50 ng/ml), and bovine brain pituitary extract (BPE) (0.4%, v/v) were added to the plate, and the cells were cultured under the conditions of 37° C. and 5% CO2. […]
4) 3 days after the addition of the medicament in the step 3), reagents for luciferase assay (Bright-Glo™ Luciferase Assay System, Promega Corporation) were used and the luciferase activity was measured according to the manufacturer's protocol. […] After standing at rest for two minutes, 70 μl thereof were subjected to the measurement of the absorbance of luciferase.

SMILES | FLG mRNA expression (GAPDH ratio) (FLG mRNA) | transcription activity on FLG promoter (FLG promoter)
O=C(CCCCCN1C(=O)c2cccc3cccc(c23)C1=O)NO [Comparative Compound 2, 6-(1,3-Dioxo-1H,3H-benzo[de]isoquinolin-2-yl)hexanoic acid hydroxyamide, reference compound] | increased FLG mRNA expression | the transcription activity on FLG promoter was observed
CCc1ccc(OCc2ccccc2C(=O)Nc2ccc3nc(C)cc(N)c3c2)cc1.Cl [Compound 1, N-(4-Amino-2-methyl-6-quinolyl)-2-[(4-ethylphenoxy)methyl]benzamide hydrochloride] | increased FLG mRNA expression | had the transcription activity on FLG promoter
